According to patent US20230279246A1, “MOLECULE-CONTAINING SURFACES AND METHODS OF PREPARATION THEREOF” (University of Durham, priority 2020, published 2023):

System: Gram-negative Escherichia coli BW25113
Assay: Antibacterial testing of coated substrates, CFU plate counting
Settings: relative to untreated substrate; for Bacteria Loss/Log10 Reduction E. coli (Gram-negative): coated PET film, 4 h at 30 °C, mean ± standard deviation; for Log10 Reduction E. coli: plasma poly(4-vinylaniline) series, title: polypropylene film, text: PET substrates, average ± standard deviation
Description: The prepared substrates with their respective coatings were subsequently tested for their antibacterial qualities against representative species of Gram-negative and Gram-positive bacteria. Gram-negative Escherichia coli BW25113 (CGSC 7636; rrnB3 ΔlacZ4787 hsdR514 Δ(araBAD)567 Δ(rhaBAD)568 rph-1) and Gram-positive Staphylococcus aureus (FDA209P, an MSSA strain; ATCC 6538P) bacteria cultures were prepared using autoclaved (Autoclave Vario 1528, Dixons Ltd.) Luria-Bertani broth media (LB; L3022, Sigma-Aldrich Ltd., 2% w/v in Milli-Q® grade water). A 5 ml bacterial culture was grown from a single colony for 16 h at 37° C., and then 50 μL used to inoculate a sterile polystyrene cuvette (Catalogue No. 67.742, Sarstedt AG) containing 1 mL of LB Broth. The cuvette was covered with Parafilm (Cole-Parmer Ltd.) and then placed inside a shaking incubator (model Stuart Orbital Incubator S1500, Cole-Parmer Ltd.) set at 37° C. and 120 rpm. An optical density OD600nm=0.4 was verified using a UV-Vis spectrophotometer (model Jenway 6300, Cole-Parmer Ltd.) to obtain bacteria at the mid-log phase of growth.
Uncoated control samples were washed in absolute ethanol for 15 minutes and then dried under vacuum in order to make sure they were sterile and clean. Sterile microtubes (1.5 mL, Sarstedt AG) were loaded with the untreated, or coated substrates. Next, 100 μL of the prepared bacterial culture was placed onto each substrate (so that the microorganisms could interact with one side of the surface), and left to incubate (model Bacterial Incubator 250, LMS Ltd.) for 4 hours at 30° C. Next, 900 μL of autoclaved Luria-Bertani broth media was pipetted into each microtube and vortexed (model Vortex-Genie 2, Scientific Industries Inc.) in order to recover the bacteria as a 10-fold dilution (10^−1). Further ten-fold serial dilutions were undertaken to provide 10^−2, 10^−3, 10^−4, 10^−5 and 10^−6 samples. Colony-forming unit (CFU) plate counting was performed by placing 10 μL drops from each diluted sample onto autoclaved Luria-Bertani Agar solid plates (EZMix™ powder, dust free, fast dissolving fermentation medium, L7533, Sigma-Aldrich Ltd.) and incubated (model Bacterial Incubator 250, LMS Ltd.) for 16 hours at 30° C. The number of colonies visible at each dilution were then counted. All tests were performed in triplicate.
Gram-negative Escherichia coli BW25113 (CGSC 7636; rrnB3 ΔlacZ4787 hsdR514 Δ(araBAD)567 Δ(rhaBAD)568 rph-1) and Gram-positive Staphylococcus aureus (FDA209P, an MSSA strain; ATCC 6538P) bacteria cultures were prepared using autoclaved (Autoclave Vario 1528, Dixons Ltd.) Luria-Bertani broth media (LB; L3022, Sigma-Aldrich Ltd., 2% w/v in grade water). A 5 ml bacterial culture was grown from a single colony for 16 h at 37° C., and then 50 μL used to inoculate a sterile polystyrene cuvette (Part No. 67.742, Sarstedt AG) containing 1 mL of LB Broth. The cuvette was covered with Parafilm (Cole-Parmer Ltd.) and then placed inside a shaking incubator (model Stuart Orbital Incubator S1500, Cole-Parmer Ltd.) set at 37° C. and 120 rpm to allow the bacteria to grow until an optical density OD600nm=0.4 was measured using a UV-Vis spectrophotometer (model Jenway 6300, Cole-Parmer Ltd.) which corresponded to the mid-log phase growth of bacteria.
Antibacterial testing was performed within 24 h of fabricating the coatings. Uncoated control samples were cleaned and sterilized by washing in absolute ethanol for 15 min and drying under vacuum. Each uncoated or coated substrate piece was placed aseptically inside a sterile microtube (1.5 mL, Sarstedt AG) so that the microorganisms could interact with one side of the surface. Next, 100 μL of the prepared bacterial culture was pipetted onto each substrate. In practice, the porous substrates absorbed the liquid so that the entire 15 mm×15 mm area of the samples was permeated by the bacterial suspension.

| SMILES | Bacteria Loss/Log10 Reduction E. coli (Gram-negative) | Bacteria Loss/Log10 Reduction E. coli (Gram-negative) (listed as cinnamaldehyde) | Log10 Reduction E. coli (listed as Cinnamaldehyde-only) | Log10 Reduction E. coli (listed as cinnamaldehyde-only) | Bacteria Loss/Log10 Reduction E. coli (Gram-negative) (listed as Tannic acid-only) |
| --- | --- | --- | --- | --- | --- |
| O=C/C=C/c1ccccc1 [Cinnamaldehyde, trans-cinnamaldehyde] | 0.12 ± 0.07 Log10 Reduction | very small antibacterial effect | 0.12 ± 0.07 Log10 Reduction | very small effect | – |
| O=C(OC[C@H]1O[C@@H](OC(=O)c2cc(O)c(O)c(OC(=O)c3cc(O)c(O)c(O)c3)c2)[C@H](OC(=O)c2cc(O)c(O)c(OC(=O)c3cc(O)c(O)c(O)c3)c2)[C@@H](OC(=O)c2cc(O)c(O)c(OC(=O)c3cc(O)c(O)c(O)c3)c2)[C@@H]1OC(=O)c1cc(O)c(O)c(OC(=O)c2cc(O)c(O)c(O)c2)c1)c1cc(O)c(O)c(OC(=O)c2cc(O)c(O)c(O)c2)c1 [Tannic Acid, tannic acid] | 0.00 Log10 Reduction | – | – | – | no antibacterial activity |
